These results are taken from article PMC6199744, “Development of Chemical Proteomics for the Folateome and Analysis of the Kinetoplastid Folateome” (ACS Infectious Diseases, 2018).

Like-named read-outs stand apart in the source and are kept apart here.

Holding throughout (format): binding
The target of assay [1] is T1, HeLa cell extract proteins (Homo sapiens, UniProt P10515).
T1 construct: endogenous in cells; host or cells: HeLa cell extract
T1 sequence (P10515 87-647): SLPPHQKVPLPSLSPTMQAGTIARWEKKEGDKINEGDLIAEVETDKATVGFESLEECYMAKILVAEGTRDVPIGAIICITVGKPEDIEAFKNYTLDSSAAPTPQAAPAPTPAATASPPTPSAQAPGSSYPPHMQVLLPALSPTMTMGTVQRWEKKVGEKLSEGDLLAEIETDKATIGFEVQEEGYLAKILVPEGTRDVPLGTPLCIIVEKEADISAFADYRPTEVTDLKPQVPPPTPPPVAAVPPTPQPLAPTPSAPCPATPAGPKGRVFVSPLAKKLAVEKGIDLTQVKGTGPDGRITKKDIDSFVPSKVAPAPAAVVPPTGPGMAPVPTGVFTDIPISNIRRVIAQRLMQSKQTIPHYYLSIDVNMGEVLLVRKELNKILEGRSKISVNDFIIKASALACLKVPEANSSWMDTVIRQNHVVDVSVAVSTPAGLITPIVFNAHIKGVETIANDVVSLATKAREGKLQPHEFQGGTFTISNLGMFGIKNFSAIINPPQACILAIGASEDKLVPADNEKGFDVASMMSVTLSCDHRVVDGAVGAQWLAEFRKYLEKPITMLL

The target in assay [2] is T2, HeLa cell extract proteins (Homo sapiens, UniProt P13798).
T2 construct: endogenous in cells; host or cells: HeLa cell extract
T2 sequence (P13798 1-732): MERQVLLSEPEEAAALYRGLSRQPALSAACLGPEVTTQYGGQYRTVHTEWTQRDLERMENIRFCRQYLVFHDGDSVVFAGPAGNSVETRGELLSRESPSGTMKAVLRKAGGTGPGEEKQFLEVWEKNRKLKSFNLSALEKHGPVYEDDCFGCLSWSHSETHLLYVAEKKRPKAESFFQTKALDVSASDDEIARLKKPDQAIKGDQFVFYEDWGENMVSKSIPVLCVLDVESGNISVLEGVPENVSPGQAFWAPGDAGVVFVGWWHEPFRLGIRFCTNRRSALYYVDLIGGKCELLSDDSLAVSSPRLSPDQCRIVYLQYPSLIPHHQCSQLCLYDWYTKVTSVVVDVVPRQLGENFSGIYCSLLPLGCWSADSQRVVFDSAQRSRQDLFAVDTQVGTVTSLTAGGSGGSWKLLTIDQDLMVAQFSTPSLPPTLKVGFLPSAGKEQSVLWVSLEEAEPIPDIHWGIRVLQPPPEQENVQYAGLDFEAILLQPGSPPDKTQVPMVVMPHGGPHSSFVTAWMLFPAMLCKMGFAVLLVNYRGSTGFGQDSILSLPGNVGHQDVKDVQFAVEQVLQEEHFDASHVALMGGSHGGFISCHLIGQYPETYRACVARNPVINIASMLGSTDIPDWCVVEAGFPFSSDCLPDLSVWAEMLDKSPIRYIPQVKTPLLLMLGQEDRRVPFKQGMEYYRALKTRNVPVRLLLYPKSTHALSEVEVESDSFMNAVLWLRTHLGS

The target in assay [3] is T3, HeLa cell extract proteins (Homo sapiens, UniProt P26038).
T3 construct: endogenous in cells; host or cells: HeLa cell extract
T3 sequence (P26038 whole entry): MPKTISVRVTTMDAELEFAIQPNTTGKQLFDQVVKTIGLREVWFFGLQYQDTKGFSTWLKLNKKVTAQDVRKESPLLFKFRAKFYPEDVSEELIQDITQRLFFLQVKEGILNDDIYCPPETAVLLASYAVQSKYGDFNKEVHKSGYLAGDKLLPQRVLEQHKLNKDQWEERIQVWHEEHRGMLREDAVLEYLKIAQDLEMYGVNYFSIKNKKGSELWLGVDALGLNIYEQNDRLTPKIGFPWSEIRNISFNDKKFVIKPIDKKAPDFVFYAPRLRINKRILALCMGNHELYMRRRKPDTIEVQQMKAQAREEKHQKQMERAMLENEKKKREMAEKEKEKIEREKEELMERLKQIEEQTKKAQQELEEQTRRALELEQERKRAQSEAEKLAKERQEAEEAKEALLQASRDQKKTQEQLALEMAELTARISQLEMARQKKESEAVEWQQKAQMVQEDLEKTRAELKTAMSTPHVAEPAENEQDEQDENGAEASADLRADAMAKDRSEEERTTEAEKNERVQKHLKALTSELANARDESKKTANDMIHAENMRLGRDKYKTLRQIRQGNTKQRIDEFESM

Assay [4] deals with T4, HeLa cell extract proteins (Homo sapiens, UniProt Q969M3).
T4 construct: endogenous in cells; host or cells: HeLa cell extract
T4 sequence (Q969M3 whole entry): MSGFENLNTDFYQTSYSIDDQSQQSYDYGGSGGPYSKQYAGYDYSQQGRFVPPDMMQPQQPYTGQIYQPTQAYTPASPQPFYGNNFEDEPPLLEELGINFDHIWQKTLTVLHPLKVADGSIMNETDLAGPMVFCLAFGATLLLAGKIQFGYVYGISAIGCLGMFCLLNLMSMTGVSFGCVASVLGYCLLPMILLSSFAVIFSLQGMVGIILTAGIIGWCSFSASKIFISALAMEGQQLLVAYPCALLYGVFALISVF

Assay [5] concerns the target T5, HeLa cell extract proteins (Homo sapiens, UniProt Q9BW27).
T5 construct: endogenous in cells; host or cells: HeLa cell extract
T5 sequence (Q9BW27 1-656): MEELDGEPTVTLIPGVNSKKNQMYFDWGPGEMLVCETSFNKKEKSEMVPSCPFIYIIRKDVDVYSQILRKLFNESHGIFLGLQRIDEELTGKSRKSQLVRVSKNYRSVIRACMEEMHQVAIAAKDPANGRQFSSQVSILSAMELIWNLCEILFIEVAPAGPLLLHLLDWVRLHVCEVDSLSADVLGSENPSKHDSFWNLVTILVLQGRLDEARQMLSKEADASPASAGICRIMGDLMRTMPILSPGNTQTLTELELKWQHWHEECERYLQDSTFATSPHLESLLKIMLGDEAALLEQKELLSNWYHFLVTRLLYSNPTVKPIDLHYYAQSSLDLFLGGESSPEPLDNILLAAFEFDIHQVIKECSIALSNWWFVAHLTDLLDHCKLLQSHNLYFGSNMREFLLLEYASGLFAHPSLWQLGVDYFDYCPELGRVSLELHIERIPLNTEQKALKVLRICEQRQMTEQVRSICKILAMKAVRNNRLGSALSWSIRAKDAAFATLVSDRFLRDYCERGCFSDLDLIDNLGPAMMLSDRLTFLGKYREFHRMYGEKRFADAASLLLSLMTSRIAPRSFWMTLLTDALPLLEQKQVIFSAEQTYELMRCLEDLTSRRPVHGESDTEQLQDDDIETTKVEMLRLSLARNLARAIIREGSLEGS

For assay [6], the target named is T6, HeLa cell extract proteins (Homo sapiens, UniProt Q9UPY5).
T6 construct: endogenous in cells; host or cells: HeLa cell extract
T6 sequence (Q9UPY5 1-501): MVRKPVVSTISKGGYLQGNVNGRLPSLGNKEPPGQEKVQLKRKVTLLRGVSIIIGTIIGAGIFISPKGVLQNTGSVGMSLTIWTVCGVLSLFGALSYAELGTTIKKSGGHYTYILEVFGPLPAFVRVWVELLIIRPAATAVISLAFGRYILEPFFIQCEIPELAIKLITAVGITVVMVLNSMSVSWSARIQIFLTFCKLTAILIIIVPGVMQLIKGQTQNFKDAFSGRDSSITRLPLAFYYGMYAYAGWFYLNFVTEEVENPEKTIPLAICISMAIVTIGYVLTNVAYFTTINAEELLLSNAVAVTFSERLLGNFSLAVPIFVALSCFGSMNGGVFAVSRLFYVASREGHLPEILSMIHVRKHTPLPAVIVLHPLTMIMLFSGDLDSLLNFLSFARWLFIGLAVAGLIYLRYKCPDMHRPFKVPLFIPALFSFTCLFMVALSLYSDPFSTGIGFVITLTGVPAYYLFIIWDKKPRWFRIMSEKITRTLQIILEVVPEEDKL

Setting [7] is: HeLa, protein APEH (ACYLAMINO-ACID-RELEASING ENZYME).
The mark [8] stands for this setting: HeLa, protein DLAT (DIHYDROLIPOYLLYSINE-RESIDUE ACETYLTRANSFERASE COMPONENT OF PYRUVATE DEHYDROGENASE COMPLEX, MITOCHONDRIAL).

In the case of `Nc1nc2c(c(=O)[nH]1)N(C=O)C(CNc1ccc(C(=O)N[C@@H](CCC(=O)O)C(=O)O)cc1)CN2` (stereo partly drawn) [LEU, leucovorin], the “fold changes relative to vehicle control” value came out at 1.05 in assay [1] (HeLa, protein DLAT ([…]-RESIDUE ACETYLT[…] OF PYRUVATE DEH[…], MITOCHONDRIAL)); 1.08 in assay [2] (setting [7]); 0.93 in assay [3] (HeLa, protein MSN); 0.94 in assay [4] (HeLa, captured protein YIPF5); 0.82 in assay [5] (protein NUP85, HeLa); 0.96 in assay [6] (HeLa, captured protein SLC7A11).

Turning to `Nc1nc2[nH]cc(CCc3ccc(C(=O)N[C@@H](CCC(=O)O)C(=O)O)cc3)c2c(=O)[nH]1` [PTX, pemetrexed], the “fold changes relative to vehicle control” value was 0.96 in assay [1]; 0.96 in assay [2]; 0.97 in assay [3]; 0.98 in assay [4]; 0.9 in assay [5]; 0.91 in assay [6].

`CCCCCCOc1ccc(Cc2cnc(N)nc2N)cc1` [compound 1]: the “fold changes relative to vehicle control” value in assay [1] (protein DLAT, HeLa) stood at 0.98; in assay [2] (HeLa, protein APEH) it was 0.96; in assay [3] (protein MSN, HeLa) it was 1.07; in assay [4] (captured protein YIPF5, HeLa), 1.43; in assay [5] (captured protein NUP85, HeLa), 0.93; in assay [6] (captured protein SLC7A11, HeLa), 0.98.

For `CCCCCCOc1cccc(Cc2cnc(N)nc2N)c1` [compound 2], the “fold changes relative to vehicle control” value turned out to be 0.39 in assay [1] (protein DLAT, HeLa); 0.91 in assay [2] (HeLa, protein APEH); 1.81 in assay [3] (protein MSN, HeLa); 1.15 in assay [4] (captured protein YIPF5, HeLa); 0.96 in assay [5] (captured protein NUP85, HeLa); 0.92 in assay [6] (captured protein SLC7A11, HeLa).

Regarding `Nc1nc2cccc(-c3ccccc3)c2n1Cc1ccc(Cl)c(Cl)c1` [compound 3], the “fold changes relative to vehicle control” value in assay [1] (protein DLAT, HeLa) turned out to be 1.1; in assay [2] (HeLa, protein APEH), 1.01; in assay [3] (protein MSN, HeLa), 0.77; in assay [4] (captured protein YIPF5, HeLa), 0.72; in assay [5] (captured protein NUP85, HeLa), 0.9; in assay [6] (captured protein SLC7A11, HeLa), 0.99.

Regarding `NCCOCCOCC(=O)Nc1nc2ncc(CNc3ccc(C(=O)NC(CCC(=O)O)C(=O)O)cc3)nc2c(=O)[nH]1` (stereo not drawn) [compound 6], the “fold changes relative to vehicle control” value in assay [1] (setting [8]) was determined as 0.92; in assay [2] (setting [7]) it was 0.91; in assay [3] (HeLa, protein MSN), 1.08; in assay [4] (HeLa, captured protein YIPF5), 0.93; in assay [5] (protein NUP85, HeLa), 0.93; in assay [6] (HeLa, captured protein SLC7A11), 0.93.

On to `NCCCNc1ccc(C(=O)NC(CCC(=O)O)C(=O)O)cc1` (stereo not drawn) [compound 7], for which the “fold changes relative to vehicle control” value in assay [1] (setting [8]) came out at 0.97; in assay [2] (setting [7]), 1; in assay [3] (HeLa, protein MSN) it was 0.81; in assay [4] (HeLa, captured protein YIPF5), 0.83; in assay [5] (protein NUP85, HeLa) it was 0.95; in assay [6] (HeLa, captured protein SLC7A11), 0.95.
